From patent US6486169B1, “Botanical drug for treatment and prevention of alzhimer's disease” (priority 2002, dated 2002)
Marks after values point to notes of the source that are not given here.

What was measured:
[1] = test system: brain protein synthesis; experiment: Brain protein synthesis, (14C) leucine incorporation in cell free brain homogenate; type: in vivo, mice of DBA/2 strains; settings: mice, injected 1.0 mg/kg each, control 901
Experimental: It is known that an age-dependent decline in animal brain protein synthesis. The decreased incorporation of amino acids into proteins can be observed in vitro including brain slices, brain cell suspensions, cell free brain homogenate preparations from older animals. Four months of male mice of DBA/2 strains used in experiment. Mice of HUE group injected HUE and dose was 0.1, 0.5 and 1.0 mg/kg. Mice of control group were injected by same value of saline. Mice killed and brain was rapidly removed. Cell free brain homogenate preparations used in experiment. (^14C) leucine mixed with homogenate suspension was incubated at 37° C. Homogenate precipitated with 10% trichloroacetic acid (TCA) and filtered onto glass fiber filters. The filters were washed with phosphate-buffered saline and placed in scintillation vials 10 ml of scintillation solution (which containing […]) were added to digested solution and determined at LSC and radioactive emissions were counted.

[2] = test system: RNA synthesis of brain cells; experiment: RNA synthesis of brain cells, 3H-U incorporation in cell free brain homogenate; type: in vivo, mice of DBA/2 strains; settings: mice, injected 1.0 mg/kg, control (saline) 1280
Experimental: It is known that decline RNA content in cortical and cerebral cortex of AD. RNA of brain cell was determined.
Four months of male mice of DBA/2 strains used in experiment. Mice of treatment group injected HUE or CLE (dose was 1.0 mg/kg). Mice of control group were injected by same value of saline. Mice killed and brain was rapidly removed. Cell free brain homogenate preparations used in experiment. 0.5 μC ^3H-U (20 μCi/mM) was mixed with 1 ml homogenate suspension was incubated at 37° C. Homogenate precipitated with 10% trichloroacetic acid (TCA) and filtered onto glass fiber filters. The filters were washed with phosphate-buffered saline and placed in scintillation vials 10 ml of scintillation solution (which containing […]) were added to digested solution and determined at LSC and radioactive emissions were counted.

[3] = test system: N2a neuroblastoma cells exposed to Aβ; experiment: Viability of N2a neuroblastoma cells exposed to Alzheimer amyloid β protein; type: cell-based; settings: 50 μm Aβ for 24 hours, HUE 50 μg/ml, βA alone 35.4, normal 97.5
Excerpt: In AD, the protein forms aggregates of insoluble β-pleated sheets of fibrillar βA protein(amyloid). The conformational change from soluble to fibrillar forms seems to be a spontaneous event. The fibrillization is increased with higher concentrations of βA and with the longer forms of βA, so any production of larger amounts of βA than normal or production of the larger, less soluble forms of βA will tend to increase plaque formation. Once the βA plaque has started to form, other molecules can interact with the nascent plaque to produce eventually the mature plaque with its associated areas of cell death. In present study, effect of HUE on neuroblastoma cells exposed to the Alzheimer amyloid β protein and Aβ was examined.
N2a neuroblastoma cells were cultured and then exposed to 50 μm Aβ for 24 hours.
Concentration of HUE was 50 μg/ml. Cells viability determined by fluorescent staining, iodide and the trypan blue exclusion methods were used in experiments.

[4] = test system: male mice of PBA/2 strains; experiment: Effect on memory (2): anisodine-caused mistake of memory; type: in vivo; settings: anisodine model, dose 50 mg/kg each (50 + 50 for combination), control 38.5 ± 4.0, normal 5.0 ± 1.2
Experimental: Four months of male mice of PBA/2 strains used in experiments. […] The control group was injected saline. Complex learning measures and memory were determined in experiments. (Reference see “Mammalian Models for Research on Aging”, pp 23-180, edited by Committee on Animal Models for Research on Aging, Institute of Laboratory Animal resources, division of Biological Sciences and Assembly of Life Science, published by National Academy Press, Washington, D.C., 1981). Normal animals injected by saline. Control animals injected by anisodine. Anisodine caused mistake of memory.

[5] = test system: DA in brain; experiment: Concentration of dopamine (DA) in brain; type: in vivo; settings: 10 mg/kg each; control 880 ± 97
Excerpt: The effect of CLE and HUE on concentration of dopanmine (DA) was examined. The method of animal is as same as mentioned previously.

[6] = test system: LTP in CAI area of brain; experiment: Long-term potentiation (LTP) by electro-physiological method; type: in vivo; settings: control 8
Excerpt: The long-term potentiation (LTP) is model of information stored in brain. LTP is as an index determined by electro-physiological method and express as mv in CAI area of brain.

[7] = test system: male mice of PBA/2 strains; experiment: Effect on memory (1): complex learning measures and memory in mice; type: in vivo; settings: injected, normal = 100
Experimental: Four months of male mice of PBA/2 strains used in experiments. […] Mice of HUE group were injected 0.1, 0.5 and 1.0 mg/kg of HUE. The control group was injected saline. Complex learning measures and memory were determined in experiments. (Reference see “Mammalian Models for Research on Aging”, pp 23-180, edited by Committee on Animal Models for Research on Aging, Institute of Laboratory Animal resources, division of Biological Sciences and Assembly of Life Science, published by National Academy Press, Washington, D.C., 1981). Normal animals injected by saline. Control animals injected by anisodine. Anisodine caused mistake of memory.

[8] = test system: superoxide anion of pig brain; experiment: Postischemic SOD-inhibitable NBT reduction (superoxide anion generation) in pig brain; type: in vivo; settings: piglets, ischemia-reperfusion, pretreated with HUE 0.5 mg/kg; ischemia-reperfusion control 12.9 ± 2.0, normal 2.8 ± 0.3
Experimental: Reperfusion injury after prolonged ischemia appeared to oxygen species of cerebral. The superoxide dismutase (SOD)-inhibitable nitroblue tetrazolium (NBT) reduction was determined as an index of superoxide anion generation in pig brain. In present study, effect of HUE on postischemic SOD-inhibitable NBT reduction was determined.
Piglets (1 kg) of either sex were anesthetized Anesthesia was maintained with α-chloralose. A catheter was inserted into a femoral artery to record blood pressure and to sample for blood gases and pH. Another catheter was placed in a femoral vein for injection of drugs. The trachea was cannulated, and the piglets were ventilated with room air. Body temperature was maintained at 37-38° C. with a water-circulating heating pad. Total cerebral ischemia was performed.
SOD-inhibitable NBT reduction was determined as an index of superoxide anion production. In control group, the piglets treated with vehicle (CSF). In treatment group, the piglets pretreated with HUE (0.5 mg/kg). SOD-inhibitable NBT reduction was determined for 20 minutes. For analysis, the slices were minced and homogenized in 1 N NaOH and 0.1% sodium dodecyl sulfate, the mixture centrifuged at 20,000 g for 20 min, the resulting supernatant discarded, and the pellet resuspended in 3 ml pyridine. […] The concentration of formazan in the resulting solution was determined spectrophotometrically at 515 nm.

[9] = test system: Ca++ concentration of brain cells; experiment: Ca++ concentration of brain cell; type: in vivo; settings: control 112
Experimental: Method of animal is as same as example 7.
Ca^++ concentration of brain cell was determined.

Molecule	CPM ((14C) leucine into protein) [1]	CPM (3H-U into RNA) [2]	Cells viability (%) [3]	Number of mistake [4]	DA (ng/g brain) [5]	LTP (mv in CAI) [6]	Increasing memory (%) ([7]; 0.1 mg/kg)	Increasing memory (%) ([7]; 0.5 mg/kg)	Increasing memory (%) ([7]; 1.0 mg/kg)	Pmol NBT/mm^2, 20 min (SOD-inhibitable NBT reduction) [8]	Ca^++ [9]
C/C=C1\[C@H]2C=C(C)C[C@]1(N)c1ccc(=O)[nH]c1C2 [HUE, Huperzine]	2640 CPM	1860 CPM	80.2* %	*10.8 ± 1.5	1280 ± 120 ng/g brain	10 mv	150%	210%	350%	4.2 ± 0.5 Pmol NBT/mm^2, 20 min	160 µmol/L
Clausenamide [CLE]	1580 CPM	1540 CPM	70.5* %	*11.2 ± 2.0	1560 ± 102 ng/g brain	13 mv	–	–	–	–	220 µmol/L
